Results taken from patent US10570140B2, “Selective inhibitors of protein arginine methyltransferase 5 (PRMT5)” (Prelude Therapeutics, Incorporated, priority 2017, dated 2020).
Where a name gives a salt, the structure may show the parent alone.

Key:
[1] = test system: Granta-519; test: Tumor growth inhibition in Granta-519 mouse xenograft model; format: in vivo
Description: In Vivo Pharmacodynamic Effect and Tumor Growth Inhibition of Example 47 in Granta-519 Mouse Xenograft Model.
(§1) Granta-519 cells was maintained in DMEM medium supplemented with 10% fetal bovine serum and 2 mM L-Glutamine at 37° C. in an atmosphere of 5% CO2 in air. Cells in exponential growth phase were harvested and 1×10^7 cells in 0.1 mL of PBS with Matrigel (1:1) were injected subcutaneously at the right lower flank region of each mouse for tumor development. The treatments were started when the mean tumor size reaches approximately 300-400 mm^3. […] Example 47 or vehicle (0.5% Na CMC+0.5% Tween80, suspension) were administered orally (QD for Example 47, QD for vehicle) at a dose of 30 mg/kg and 50 mg/kg for 19 and 16 days, respectively. Body weights and tumor size were measured every 3 to 4 days after randomization. Animals were euthanized 12 hours after last dosing, and blood and tumor samples were collected for analysis.

[2] = test system: sDMA; test: Western blot for symmetric di-methyl arginine (sDMA) IC50 in Granta cells; format: cell-based; settings: Homo sapiens, 72 h; Granta-519 cell line, 3 days
[3] = test system: sDMA; test: sDMA levels in tumor samples of Granta-519 mouse xenograft (WB); format: in vivo
Description: as §1
To measure sDMA levels in tumor samples, tumors from each mouse were weighted and homogenized in RIPA buffer supplemented with protease inhibitor (cOmplete™, EDTA-free Protease Inhibitor Cocktail, Roche). Lysate were centrifuged at 14,000 rpm for 30 min at 4° C. to remove debris. Total protein concentrations of lysate were determined by BCA assay (ThermoFisher Scientific, Catalog #: 23225). Equal amount of total proteins from each tumor were separated on SDS-PAGE gel, and sDMA levels were determined by WB as described previously.

[4] = Body weight in Granta-519 mouse xenograft study; format: in vivo
Description: as §1

[5] = test system: Granta-519 cells; test: Cell proliferation assay on Granta-519 cells (CCK-8, day 10); format: cell-based; settings: Homo sapiens, 240 h, Granta-519 cell line, read-out: Prolif. IC50
Description: Cell Proliferation Assay to Determine IC50 on Granta-519 Cells
Granta-519 cells were maintained in PRMI 1640 (Corning Cellgro, Catalog #: 10-040-CV) medium supplemented with 10% v/v FBS (GE Healthcare, Catalog #: SH30910.03). Compounds were dissolved in DMSO to make 10 mM stocks and stored at −20° C. Nine-point, 3-fold serial dilutions were made with DMSO with top concentration at 1 mM (working stocks).
On day of experiment, compound working stocks were further diluted at 1:50 with fresh medium in 96 well plate, and 10 μL of diluted drugs were added to a new 96 well plate for proliferation assay. Cells growing at exponential phase were spun down at 1500 rpm for 4 min and resuspend in fresh medium to reach a density of 0.5×10^6 cells/ml. 200 ul of cells were added to 96 well plate containing diluted drugs and incubated for 3 days. DMSO was used a vehicle control.
One day 3, 10 μL of Cell Counting Kit-8 (CCK-8, Jojindo, CK04-13) solution was added to a new 96 well plate. Cells incubated with drugs for 3 days were resuspended by pipetting up and down, and 100 μL of cells were transferred to 96 well plate containing CCK-8 reagent to measure viable cells. Plates were incubated in CO2 incubator for 2 hours and OD450 values were measured with a microplate reader (iMark microplate reader, Bio-Rad).
For re-plating, compound working stocks were diluted at 1:50 with fresh medium and 10 μL of diluted drugs were added to a new 96 well plate. Cells from Day 3 plate (50 ul) were added to 96 well plate containing fresh drug and additional 150 μL of fresh medium was added to reach 200 μL volume. Plate was returned to CO2 incubator and incubated for 3 more days. Viable cells measurement and re-plating were repeated on day 6, and the final viable cells measurement was taken on day 10.
Percentage of viable cells, relative to DMSO vehicle control, were calculated and plotted in Graphpad Prism ([Inhibitor] vs. normalized response−Variable slope) to determine proliferation IC50 values on day 10.

[6] = target: PRMT5/MEP50 complex (Homo sapiens (Human), UniProt O14744); test: PRMT5 biochemical assay (3H-SAM filter plate, histone H2A substrate); settings: PRMT5/MEP50 5 nM, histone H2A 5 μM, SAM 1 μM; read-out: PRMT5 IC50
Chain of PRMT5/MEP50 complex (O14744 whole entry): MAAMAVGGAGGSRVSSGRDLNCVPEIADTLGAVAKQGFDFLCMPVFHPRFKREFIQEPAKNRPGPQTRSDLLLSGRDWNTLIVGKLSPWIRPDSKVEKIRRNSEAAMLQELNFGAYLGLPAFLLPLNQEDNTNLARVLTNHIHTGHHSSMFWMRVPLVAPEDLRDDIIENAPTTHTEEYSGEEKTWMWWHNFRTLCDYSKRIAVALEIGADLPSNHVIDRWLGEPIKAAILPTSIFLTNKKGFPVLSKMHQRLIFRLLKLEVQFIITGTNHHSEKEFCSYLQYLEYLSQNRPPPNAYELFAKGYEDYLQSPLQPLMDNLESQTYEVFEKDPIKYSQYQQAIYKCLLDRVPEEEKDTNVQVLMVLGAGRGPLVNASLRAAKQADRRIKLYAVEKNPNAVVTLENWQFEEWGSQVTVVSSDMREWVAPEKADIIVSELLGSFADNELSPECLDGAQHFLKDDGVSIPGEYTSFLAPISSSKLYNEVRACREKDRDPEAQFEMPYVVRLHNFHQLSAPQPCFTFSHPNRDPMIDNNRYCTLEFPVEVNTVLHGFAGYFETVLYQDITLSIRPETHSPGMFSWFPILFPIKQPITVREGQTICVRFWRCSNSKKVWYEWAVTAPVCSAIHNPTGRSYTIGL
Chain of PRMT5/MEP50 complex (Q9BQA1 whole entry partner): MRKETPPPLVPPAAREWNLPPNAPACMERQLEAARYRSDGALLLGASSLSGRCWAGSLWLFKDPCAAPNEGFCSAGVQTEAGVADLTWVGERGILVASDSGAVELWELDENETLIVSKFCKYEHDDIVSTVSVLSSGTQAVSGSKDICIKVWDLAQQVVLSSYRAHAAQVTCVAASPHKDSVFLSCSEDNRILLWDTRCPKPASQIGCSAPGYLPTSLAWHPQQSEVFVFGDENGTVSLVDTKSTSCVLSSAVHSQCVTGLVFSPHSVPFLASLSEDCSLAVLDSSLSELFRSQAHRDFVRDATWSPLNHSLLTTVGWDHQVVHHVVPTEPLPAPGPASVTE
Description: Biochemical Assay Protocol
Compounds were solubilized and 3-fold diluted in 100% DMSO. […] Standard reactions were performed in a total volume of 50 μl in assay buffer, with histone H2A (5 μM final) as substrate. To this was added the PRMT5/MEP50 complex diluted to provide a final assay concentration of 5 nM and the compounds were allowed to preincubate for 15 to 20 minutes at room temperature. The reaction was initiated by adding S-[3H-methyl]-adenosyl-L-methionine (PerkinElmer) to final concentration of 1 μM. Following a 60 minutes incubation at 30° C., the reaction was stopped by adding 100 μL of 20% TCA. Each reaction was spotted onto filter plate (MultiScreen FB Filter Plate, Millipore), and washed 5 times with PBS buffer, Scintillation fluid was added to the filter plate and read in a scintillation counter. IC50 values were determined by fitting the data to the standard 4 parameters with Hill Slope using GraphPad Prism software.

[7] = Rat non-crossover PK study; format: in vivo
Description: In Vivo Pharmacokinetic Properties of Example 47.
In a rat (SD, male, non-fasted) non-crossover PK study, Example 47 was dosed at 1 mg/kg (DMA: 20% HPBCD=5:95, solution) via i.v. administration (N=3) and 1 mg/kg (0.5% Na CMC+0.5% Tween80, solution) via oral gauge (p.o.) (N=3).

[8] = physchem; settings: FaSSIF buffer, 25 °C, thermodynamic from solid

| SMILES | tumor growth inhibition ([1]; 30 mg/kg orally QD, 19 days, average (N=5)) | tumor growth inhibition ([1]; 50 mg/kg orally QD, 16 days, average) | IC50 [2] | sDMA in tumor ([3]; 50 mg/kg) | inhibition at 30 mg/kg ([3]; Mus musculus, Granta-519, 30 mg/kg) | body weight loss ([4]; 30 mg/kg orally QD, 19 days) | body weight loss ([4]; 50 mg/kg orally QD, 16 days) | IC50 [5] | IC50 [6] | half-life ([7]; blood, iv, rat (SD, male, non-fasted), 1 mg/kg i.v., average) | Vd ([7]; male, SD, blood, iv, rat, 1 mg/kg i.v., average, read-out: Vss) | bioavailability ([7]; male, SD, blood, po, rat, 1 mg/kg p.o.) | clearance ([7]; male, SD, whole blood, iv, rat, 1 mg/kg i.v., average) | dose normalized AUC ([7]; rat, 1 mg/kg p.o., average) | solubility at 4 h [8] |
| --- | --- | --- | --- | --- | --- | --- | --- | --- | --- | --- | --- | --- | --- | --- | --- |
| C[C@@]1(O)[C@@H]([C@H](O)c2ccc(Cl)c(Cl)c2)O[C@@H](n2ccc3c(N)ncnc32)[C@@H]1O [Example 47, (2R,3S,4R,5R)-5-(4-amino-7H-pyrrolo[2,3-d]pyrimidin-7-yl)-2-((R)-(3,4-dichlorophenyl)(hydroxy)methyl)-3-methyltetrahydrofuran-3,4-diol] | 46% | 79% | 31 nM | no detectable sDMA | > 90% | 1% | 8% | 75 nM | 1.5 nM | 4.1 h | 3.1 L/kg | > 100% | 8.8 mL/min/kg | 3246 ng·kg·h/mL/mg |  |
| C[C@@]1(O)[C@@H]([C@H](O)c2ccc(Cl)c(Cl)c2)O[C@@H](n2ccc3c(N)ncnc32)[C@@H]1O [Example 48, (2R,3S,4R,5R)-5-(4-amino-7H-pyrrolo[2,3-d]pyrimidin-7-yl)-2-((R)-(3,4-dichlorophenyl)(hydroxy)methyl)-3-methyltetrahydrofuran-3,4-diol Sulfate Salt] |  |  |  |  |  |  |  |  |  |  |  |  |  |  | 206 µg/mL |
